Among the data in patent US5665716A, “24-homo vitamin D derivatives, process for their production and pharmaceutical preparations obtained therefrom” (Schering Aktiengesellschaft, priority 1989, dated 1997) are IC50 values, retold here.

The subject of this assay is Keratinocytes of newly born mice. The assay can be described thus: antiproliferative potency: 3H thymidine incorporation in DNA of keratinocytes. It counts as cell-based, mouse (neonatal NMRI mice). Particulars: Keratinocyte; neonatal mouse keratinocytes, 24 hours with test substance in serum-free medium at 32.5° C., then 4 hours 3H methyl thymidine; read-out: IC50, inhibition of 3H thymidine incorporation in DNA. The procedure:
Keratinocytes of newly born mice, with a slight change of the method of Yuspa, S. and Harris, C.
Neonatal NMRI mice of both sexes are killed by decapitation, the skin is removed, washed in an antibiotic-antimycotic solution and incubated with the dermal side downward in dispase II solution ([…] in tissue culture medium M199+25 mmol/1 of HEPES+15% fetal calf serum (FCS)+50 U/ml of penicillin/streptomycin (P/S) (preparation medium, PM) at 4° C. overnight. The epidermis is removed and an individual cell suspension is produced by trypsinization. After centrifuging, the cell sediment is resuspended, after trypan blue dyeing, the number of living small round cells is determined and the cells are sown in a density of 4×10^5 cells/cm^2 in Primaria 24-hole plates in tissue culture medium (M199+15% FCS+50 U/ml of P/S). […] Then 0.4 microCi/50 microliters of ^3 H methyl thymidine (40 Ci/mmol) is added. After 4 hours the medium is suctioned off and the reaction is ended by addition of 500 microliters of ice-cold 10% trichloroacetic acid (TCA). The cells are washed with TCA and PBS, lysed by incubation in a proteinase K solution (10 mmol/l of tris-HCl, 10 mmol/l of EDTA, 10 mmol/l of NaCl, 0.2% of Triton-X 100, pH 8.0, 50 micrograms/ml of […]) and the lysate is clarified by centrifuging. In the supernatant the radioactivity is determined scintillation photometrically and, after specific staining of the DNA with diamidinophenylindole (DAPI), the DNA concentration is fluorescence photometrically determined.
On to `C=C1/C(=C\C=C2/CCC[C@]3(C)[C@@H]([C@H](C)/C=C/[C@@H](O)CC(C)C)CC[C@@H]23)C[C@@H](O)C[C@@H]1O` [Compound B, (5Z,7E,22E)-(1S,3R,24S)-9,10-seco-24a-homo-5,7,10(19),22-cholestatetraene-1,3,24-triol], for which the IC50 stood at 9.5 nM.

`C=C1/C(=C\C=C2/CCC[C@]3(C)[C@@H]([C@H](C)/C=C/[C@H](O)CC(C)C)CC[C@@H]23)C[C@@H](O)C[C@@H]1O` [Compound A, (5Z,7E,22E)-(1S,3R,24R)-9,10-seco-24a-homo-5,7,10(19),22-cholestatetraene-1,3,24-triol]: the IC50 came to 6 nM.

As to `C=C1/C(=C\C=C2/CCC[C@]3(C)[C@@H]([C@H](C)CCCC(C)(C)O)CC[C@@H]23)C[C@@H](O)C[C@@H]1O` [Calcitriol, 1alpha,25-dihydroxy-cholecalciferol, reference compound], the IC50 came to 2.7 nM.
